The target in one assay is human cyclin D1-Cdk4 (Homo sapiens, UniProt P11802). Kind of assay: Cdk4 FlashPlate kinase assay (Rb phosphorylation). Type of assay: biochemical. The conditions noted are these: recombinant cyclin D1-Cdk4, Rb substrate, 1 μM ATP. Here is the method: (§1) To determine inhibition of Cdk4, Cdk2 and Cdk1 activity, kinase assays were conducted using FlashPlate™ assays (NEN™-Life Science Products). FlashPlate assays were performed using recombinant human cyclin B-Cdk1, human cyclin E-Cdk2 or human cyclin D1-Cdk4 complexes. GST-cyclinE (GST-cycE), Cdk2, GST-cyclinB (GST-cycB), Cdk1, GST-Cdk4 and cyclin D1 (cycD1) cDNA clones in baculovirus vectors were provided by Dr. W. Harper at the Baylor College of Medicine, Houston, Tex. Proteins were co-expressed in High Five™ insect cells and the complex was purified on glutathione Sepharose resin (Pharmacia, Piscataway, N.J.) as previously described (Harper, J. W. et al. Cell 1993, 75, 805-816). A 6×-Histidine tagged truncated form of retinoblastoma (Rb) protein (amino acid 386-928) was used as the substrate for the cycD1-Cdk4, cycB-Cdk1 and the cycE-Cdk2 assays (the expression plasmid was provided by Dr. Veronica Sullivan, Department of Molecular Virology, Roche Research Centre, Welwyn Garden City, United Kingdom). The Rb protein is a natural substrate for phosphorylation by Cdk4, Cdk2 and Cdk1 (see Herwig and Strauss Eur. J. Biochem. Vol. 246 (1997) pp. 581-601 and the references cited therein).
(§2) The expression of the 62 Kd protein was under the control of an IPTG inducible promoter in an M15 E. coli strain. Cells were lysed by sonication and purification was carried out by binding lysates at pH 8.0 to a Ni-chelated agarose column pretreated with 1 mM imidazole. The resin was then washed several times with incrementally decreasing pH buffers to pH 6.0, and eluted with 500 mM imidazole. Eluted protein was dialysed against 20 mM HEPES pH 7.5, 30% glycerol, 200 mM NaCl, and 1 mM DTT. Purified Rb fusion protein stocks were quantitated for protein concentration, aliquoted, and stored at −70° C.
(§3) For all three kinase assays reported herein, 96-well FlashPlates were coated with Rb protein at 10 μg/ml, using 100 μl per well. Plates were incubated at 4° C. overnight or at room temperature for 3 hours on a shaker. To control for nonspecific phosphorylation, one row of wells was coated with 100 μl/well coating buffer (20 mM HEPES, 0.2 M NaCl). Plates were then washed twice with wash buffer (0.01% Tween 20 in phosphate-buffered saline). Compounds to be tested (“test compounds”) were added to the wells at 5× final concentration. Reactions were initiated by immediate addition of 40 μl reaction mix (25 mM HEPES, 20 mM MgCl2, 0.002% Tween 20, 2 mM DTT, 1 μM ATP, 4 nM 33P-ATP) and a sufficient amount of enzyme to give counts that were at least 10-fold above background. Plates were incubated at room temperature on a shaker for 30 minutes. Plates were washed four times with the wash buffer, sealed, and counted on the TopCount scintillation counter (Packard Instrument Co., Downers Grove, Ill.]. The percent inhibition of Rb phosphorylation, which is a measure of the inhibition of Cdk activity, was determined according to the following formula: […]
(§4) where “test compound” refers to the average counts per minute of the test duplicates, “nonspecific” refers to the average counts per minute when no CyclinD/Cdk4, etc., was added, and “total” refers to the average counts per minute when no compound was added. The IC50 value is the concentration of test compound that reduces by 50% the protein-kinase induced incorporation of the radiolabel under the test conditions described.

The next assay deals with human cyclin E-Cdk2 (Homo sapiens, UniProt P24941). In words: Cdk2 FlashPlate kinase assay (Rb phosphorylation). Type of assay: biochemical. The conditions noted are these: recombinant cyclin E-Cdk2, Rb substrate, 1 μM ATP. Here is the method:
as §1, §2, §3, §4

A further assay has as its target human cyclin B-Cdk1 (Homo sapiens, UniProt P06493). In words: Cdk1 FlashPlate kinase assay (Rb phosphorylation). In kind it is biochemical. The conditions noted are these: recombinant cyclin B-Cdk1, Rb substrate, 1 μM ATP. The procedure:
as §1, §2, §3, §4

The subject of assay [1] is HCT116, a colorectal carcinoma cell line. In words: Tetrazolium dye (MTT) proliferation assay. In kind it is cell-based. The conditions noted are these: Homo sapiens, HCT-116; HCT116 cells. The procedure:
Proliferation was evaluated by the tetrazolium dye assay according to the procedure of Denizot and Lang (Denizot, F. and Lang, R. J Immunol Methods 1986, 89, 271-277). The cell line used was HCT116, a colorectal carcinoma cell line obtained from the American Type Cell Culture Collection (ATCC; Rockville, Md.). The cells were grown in McCoy's 5A medium supplemented with 10% FCS and L-glutamine.
Cells were plated at the appropriate seeding density to give logarithmic growth over the course of the assay in a 96-well tissue culture plate. Plates were incubated overnight at 37° C. in a humidified incubator with 5% CO2. The next day, test compounds were serially diluted to four times the final concentration in the appropriate medium containing 1.2% DMSO. One-fourth final volume of each dilution was added in duplicate to the plates containing cells. The same volume of 1.2% DMSO in medium was added to a row of “control wells” such that the final concentration of DMSO in each well was 0.3%. Wells to which no cells were added served as the “blank.” Wells to which no inhibitor was added served as “no inhibitor control.” The plates were) returned to the incubator, and at set time points (determined by their growth curves) plates were analyzed as described below.
3-(4,5-dimethylthiazole-2-yl)-2,5-diphenyl-2H-tetrazolium bromide (thiazolyl blue; MTT; Sigma) was added to each well to yield a final concentration of 1 mg/ml. Plates were returned to the incubator for 2.5-3 hours at 37° C. The MTT-containing medium was removed and the resulting formazan metabolite was solubilized in 100% ethanol with shaking for 15 minutes at room temperature. Absorbance readings were taken in a microtiter plate reader (Dynatech and Molecular Devices plate readers were used interchangeably) at a wavelength of 570 nm with a 650 nm reference. Percent inhibition (% INH) is calculated by subtracting the absorbance of the blank well from all wells, then subtracting the ratio of the average absorbance of each test duplicate (SAVE) by the average of the controls (CAVE) from 1.00. The final number is then multiplied by 100 (% INH=(1.00−SAVE/CAVE)×100). The concentration at which 50% inhibition of cell proliferation is obtained (the IC50) is determined from the linear regression of a plot of the logarithm of the concentration versus percent inhibition.

The text below walks through data of patent US7405220B2, “Pyrazolopyrimidines” (Hoffmann-La Roche Inc., priority 2004, dated 2008).

Chain of human cyclin B-Cdk1 (P06493 whole entry): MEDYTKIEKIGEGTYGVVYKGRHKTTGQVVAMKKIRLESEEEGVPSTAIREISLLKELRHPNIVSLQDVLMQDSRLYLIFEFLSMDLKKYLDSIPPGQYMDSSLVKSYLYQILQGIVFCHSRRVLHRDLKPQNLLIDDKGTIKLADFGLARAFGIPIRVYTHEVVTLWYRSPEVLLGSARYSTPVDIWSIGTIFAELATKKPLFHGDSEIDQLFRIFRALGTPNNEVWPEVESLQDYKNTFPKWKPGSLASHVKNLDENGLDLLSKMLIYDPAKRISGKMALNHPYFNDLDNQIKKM
Chain of human cyclin B-Cdk1 (P14635 whole entry partner): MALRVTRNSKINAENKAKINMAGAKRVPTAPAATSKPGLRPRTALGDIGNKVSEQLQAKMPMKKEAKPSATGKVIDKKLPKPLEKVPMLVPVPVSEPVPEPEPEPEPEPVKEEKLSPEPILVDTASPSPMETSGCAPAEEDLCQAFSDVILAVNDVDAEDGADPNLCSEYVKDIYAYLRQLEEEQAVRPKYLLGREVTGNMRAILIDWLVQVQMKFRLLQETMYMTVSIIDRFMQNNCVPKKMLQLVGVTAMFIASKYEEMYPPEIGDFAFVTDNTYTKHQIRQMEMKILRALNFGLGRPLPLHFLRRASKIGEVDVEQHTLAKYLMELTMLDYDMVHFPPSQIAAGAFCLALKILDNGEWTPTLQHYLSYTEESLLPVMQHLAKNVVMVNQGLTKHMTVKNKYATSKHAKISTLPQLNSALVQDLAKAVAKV
Chain of human cyclin D1-Cdk4 (P11802 whole entry): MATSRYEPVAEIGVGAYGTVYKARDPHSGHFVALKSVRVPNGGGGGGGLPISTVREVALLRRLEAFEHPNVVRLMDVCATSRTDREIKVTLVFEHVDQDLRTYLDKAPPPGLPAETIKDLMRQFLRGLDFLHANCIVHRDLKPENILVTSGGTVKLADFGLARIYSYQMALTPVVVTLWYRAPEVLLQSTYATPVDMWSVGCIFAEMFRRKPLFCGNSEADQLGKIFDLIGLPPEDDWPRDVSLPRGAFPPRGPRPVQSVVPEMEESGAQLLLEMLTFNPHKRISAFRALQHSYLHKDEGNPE
Chain of human cyclin D1-Cdk4 (P24385 whole entry partner): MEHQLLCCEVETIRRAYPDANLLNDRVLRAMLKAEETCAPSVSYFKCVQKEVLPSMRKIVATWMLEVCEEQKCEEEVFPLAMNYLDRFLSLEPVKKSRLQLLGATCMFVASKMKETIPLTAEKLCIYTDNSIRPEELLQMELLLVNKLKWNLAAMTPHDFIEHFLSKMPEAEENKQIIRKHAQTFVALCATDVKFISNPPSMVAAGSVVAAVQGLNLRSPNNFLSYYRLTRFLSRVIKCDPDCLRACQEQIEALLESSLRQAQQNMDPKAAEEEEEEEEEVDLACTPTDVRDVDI

On to `CS(=O)(=O)N1CCC(Nc2ncc3c(-c4cccc(F)c4)n[nH]c3n2)CC1` [Example 31, [3-(3-Fluoro-phenyl)-1H-pyrazolo[3,4-d]pyrimidin-6-yl]-(1-methanesulfonyl-piperidin-4-yl)-amine], for which the IC50 worked out at 18.5 nM at human cyclin D1-Cdk4, 230 nM on human cyclin E-Cdk2, 1140 nM at human cyclin B-Cdk1 and 30000 nM in assay [1].
